Data on five compounds can be found in patent publication US5721219A, “N-alkyl-2-substituted ATP analogues and administration to inhibit platelet aggregation” (Astra Pharmaceuticals Ltd., priority 1993, dated 1998).

Structures can show the parent of a compound that is named as a salt.

Experiment [1] has as its target T1, P2T receptor (Homo sapiens, UniProt Q9H244).
T1 construct: activity in washed human platelets; endogenous in cells; host or cells: washed human platelets from venous blood of donors
Description: P2T receptor agonist/antagonist activity in washed human platelets (inhibition of ADP-induced aggregation). Format: cell-based. The conditions noted are these: submaximal ADP, 15 min incubation with test compound, 8-SPT present, % inhibition of control ADP response giving approximate IC50, read-out: pIC50 (negative logarithm of the antagonist potency) (converted). How it is done:
Quantification of P2T receptor aganoist/antagonist activity in washed human platelets Human venous blood (100 ml) was divided equally between 3 tubes, each containing 3.2% trisodium citrate (4 ml) as anti-coagulant. The tubes were centrifuged for 15 min at 240G to obtain a platelet-rich plasma (PRP) to which 300 ng.ml^-1 prostacyclin (PGI2, 3 μl.ml^-1 PRP of 1/10 diln. in saline from stock 1 mg/ml^-1 in ethanol) was added to stabilize the platelets during the washing procedure. Red cell free PRP was obtained by centrifugation for 10 min at 125G followed by further centrifugation for 15 min at 640G. The supernatant was discarded and the platelet pellet resuspended in modified, calcium free, Tyrode solution [(10 ml) CFT, composition: NaCl 137 mM (8 g.l^-1), NaHCO3 11.9 mM (1 g.l^-1), NaH2 PO, 0.38 mM (0.06 g.l^-1), KCl 2.86 mM (1 ml of 20% soln.l^-1), MgCl2 1.05 mM (1 ml of 10% soln.l^-1), dextrose 5.55 mM (1 g.l^-1)], gassed with 95% O2 /5% CO2 and maintained at 37°. Following addition of a further 300 ng.ml^-1PGI2, the pooled suspension was centrifuged once more for 15 min at 640G. The supernatant was discarded and the platelets resuspended initially in 10 ml CFT with further CFT added to adjust the final platelet count to 2×10^5.μl^-1. This final suspension was stored in a 60 ml syringe at 3° with air excluded.
To allow recovery from PGI2 -inhibition of normal function, platelets were used in aggregation studies no sooner than 2 hours after final resuspension. […]
A concentration of ADP producing a just submaximal response was selected by constructing a concentration/response curve over the range 10-300 μM. the appropriate solution of ADP was added to the aggregation cuvette in a volume of 10 μl, 20 min after starting the aggregation trace. Aggregation responses were measured using the maximum rate of change in light transmission, an index given by the PAP4 slope-reader. […]

Experiment [2] deals with guinea pig taenia coli. To be noted: Maguire and Satchell 1979; cited from earlier work.
The test system of experiment [3] is platelet aggregation. To be noted: Cusack and Hourani, Nucleosides & Nucleotides 1991; cited from earlier work.

T1 sequence (Q9H244 whole entry): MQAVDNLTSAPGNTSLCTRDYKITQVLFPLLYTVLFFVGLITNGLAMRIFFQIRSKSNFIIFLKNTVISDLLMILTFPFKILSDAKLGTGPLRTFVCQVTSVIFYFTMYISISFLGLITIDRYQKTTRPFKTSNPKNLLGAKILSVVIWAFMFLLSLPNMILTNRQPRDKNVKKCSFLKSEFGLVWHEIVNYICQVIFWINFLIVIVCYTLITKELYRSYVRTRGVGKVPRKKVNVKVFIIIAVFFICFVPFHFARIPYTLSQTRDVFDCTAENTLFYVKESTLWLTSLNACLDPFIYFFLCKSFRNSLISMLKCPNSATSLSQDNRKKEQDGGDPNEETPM

Turning to `O=P(O)(OC[C@H]1O[C@@H](n2cnc3c(NCC(F)(F)F)nc(SCCC(F)(F)F)nc32)[C@H](O)[C@@H]1O)OP(=O)(O)C(Cl)(Cl)P(=O)(O)O` [Example 6a, N-(2,2,2-Trifluoroethyl)-2-[(3,3,3-trifluoropropyl)thio]-5'-adenylic acid, monoanhydride with dichloromethylenebisphosphonic acid, triammonium salt], the IC50 in experiment [1] was 724 pM. `Nc1nc(Cl)nc2c1ncn2[C@@H]1O[C@H](COP(=O)(O)OP(=O)(O)CP(=O)(O)O)[C@@H](O)[C@H]1O` [2-chloro-5'-adenylic acid, monoanhydride with methylenebisphosphonic acid]: the “inhibition of guinea pig taenia coli” value in experiment [2] is given as “inhibition”. As for `CCCSc1nc(NCC)c2ncn([C@@H]3O[C@H](COP(=O)(O)OP(=O)(O)C(Cl)(Cl)P(=O)(O)O)[C@@H](O)[C@H]3O)c2n1` [Example 1, N-Ethyl-2-(propylthio)-5'-adenylic acid, monoanhydride with dichloromethylenebisphosphonic acid, tetrasodium salt], the IC50 in experiment [1] is 912 pM.

As to `CCNc1nc(SCCC(F)(F)F)nc2c1ncn2[C@@H]1O[C@H](COP(=O)(O)OP(=O)(O)C(Cl)(Cl)P(=O)(O)O)[C@@H](O)[C@H]1O` [Example 5, N-Ethyl-2-[(3,3,3-trifluoropropyl)thio]-5'-adenylic acid, monoanhydride with dichloromethylenebisphosphonic acid, trisodium salt], in experiment [1], the IC50 was 2090 pM. Take `CSc1nc(N)c2ncn([C@@H]3O[C@H](COP(=O)(O)OP(=O)(O)CP(=O)(O)O)[C@@H](O)[C@H]3O)c2n1` [2-methylthio-5'-adenylic acid, monoanhydride with methylenebisphosphonic acid]: in experiment [3], the “inhibition of ADP-α-S induced platelet aggregation” value is listed as “inhibits”.
